Experimental data taken from patent publication US20260227408A1, “Compositions and Methods for Modulation of Immune Responses” (Flagship Pioneering Innovations VI, LLC, priority 2022, published 2026).

B1: SEQ ID NO: 35480: target protein of the Sequence Listing, applied as peptide to PBMCs (peptide, listed as Homo sapiens)
chain: LRPRSAAFAPRYTRLVMRRSSRSFRLQCTGFPSSSAQSISAHLSNSMPSSLLTISRCPGMFAVRCPL
B2: SEQ ID NO: 38393: target protein of the Sequence Listing, applied as peptide to PBMCs (peptide, listed as Homo sapiens)
chain: VALSLLTSQGRQRRAGPSTAFAALPATVATFSAMTESESLRTSRHADTALARVRRGAKFRGQARTRYCARARSHRFTPPSGA
B3: SEQ ID NO: 37477: target protein of the Sequence Listing, applied as peptide to PBMCs (peptide, listed as Homo sapiens)
chain: MSCGSRRGPSLASSLAWLQLQSGTRPFCSSSPPYFLSHGRRIPFSHPRKESALRATKEPRTHRTNTSLADLPSPAPAHL
B4: SEQ ID NO: 37047: target protein of the Sequence Listing, applied as peptide to PBMCs (peptide, listed as Homo sapiens)
chain: MMAQKSKFRVLFMSDPHGTAMPLTSAILESSRASLAAKQEDKCFTDIRNLKWKHFLEHTKQPP
B5: SEQ ID NO: 33169: target protein of the Sequence Listing, applied as peptide to PBMCs (peptide, listed as Homo sapiens)
chain: MCHKGWHGPGVPHHVAFTPCKARLRPATQCQAHSSPRRKMVQAGSIPLAAASGRLCLTHAGWWRGAS
B6: SEQ ID NO: 36902: target protein of the Sequence Listing, applied as peptide to PBMCs (peptide, listed as Homo sapiens)
chain: MQRLPAAFFRSFAAQGLGESVHINTPTSLSLRGRPFISSSGPGARARVTCAPCLHAARILCCFWRGLHR
B7: SEQ ID NO: 33741: target protein of the Sequence Listing, applied as peptide to PBMCs (peptide, listed as Homo sapiens)
chain: MSYLPTNPPGSILTCWLGVSLGSHRSARGGSTIYGRLLPRRKDVWFSQAKDVPKYRGLLYLQS

Test system: CD3/CD28 (TransAct) activated PBMCs
Experiment: PBMC cytokine release by CBA, Inhibition format (peptide with CD3/CD28 TransAct activator)
Type: cell-based, human
Design: key to Inhibition by Analyte IL-1b / Inhibition by Analyte IL-2 / Inhibition by Analyte TNF / Inhibition by Analyte IP-10 / Inhibition by Analyte IL-10: X = a hit with significant activation or inhibition of relevant cytokine release
Settings: CD3/CD28 (TransAct) activated PBMCs; FIG. 1
Procedure: (§1) CBA (Cytometry) experiment looking at pro-inflammatory cytokines produced by PBMCs treated with secreted peptides.
(§2) Peripheral Blood Mononuclear Cells were seeded+/−the T-cell activator […] and +/−peptides for 24-48 hours. Cytokines were measured from the supernatant after incubation by CBA Cytometer.
(§3) Thawing PBMCs: PBMCs were thawed by pre-warming TexMACS media (Miltenyi Biotech) in 20 ml aliquots-1-50 ml conical per donor. After the media was warmed to 37° C., cells were removed from liquid nitrogen and brought to the tissue culture hood. For each donor, 1 ml of media from the warmed aliquot was added to the frozen vial and mixed up and down. The media plus thawed cells were then added back to the 50 ml conical. This was repeated until all the cells were thawed and added to the 50 ml tube. Continue with other donors if used. Spin cells for 5 min at 400×g. Supernatant was aspirated and cells resuspended at ~10*10^6 cells/ml (see vial for cell number).
(§4) PBMC Plating: Frozen PBMCs from normal, healthy, human volunteers (StemCell Technologies) were thawed and plated at 250,000 cells/well. After PBMCs were thawed and resuspended at […], cells were then counted (Countess III, Thermo Scientific) and adjusted based on counts to […]. Take the number of PBMCs determined by number of wells for the experiment, for example, 10 wells would need 2.5*10^6 cells total or 0.250 ml. The cells needed for the experiment are then transferred to another conical tube. Warmed TexMACS media is added so that the final concentration is 250,000 cells/190 ul media, for example, 10 wells would need 1.9 ml (190 ul×10 wells) of media total minus 0.250 ml of cells (1.9 ml-0.250 ml) or 1.65 ml of media added to the 0.250 ml of cells. Add 190 ul of cells plus media to the 96 well U-bottom plate. Place in incubator until dilutions are made and ready.
(§5) Peptide Dilutions: Ideally, all peptides should be at a starting concentration of at least 10 mM, especially for those in DMSO (ATCC) to reach a final concentration of 1 uM (H2O) or 0.5 uM (DMSO). Dilutions of all test articles should be made at 20× the final concentration, for example, a final concentration of 1 uM peptide would need to be made at 20 uM.
(§6) Reagent Dilution: Dilutions are made in TexMACS media, enough for 10 ul/well in triplicate (30 ul of a 20×). Activator—CD3/CD28 (TransAct; Miltenyi Biotech) or cytokine will be at 21× and added after the 45-minute incubation with peptides. Be sure to include relevant controls—Positive: TransAct+Cells, Negative: Vehicle+Cells. Dilutions should also be made in a ultra-low binding plate (Corning).
(§7) Assay Procedure: Peptide Treatment: Start assay by thawing the cells and plating in a 96 well, U-bottom tissue culture plate (Corning) as described above. Cell plates are placed in a tissue culture incubator (5% CO2, 37° C.). While cells are in the incubator, start making dilutions (optimally 1 hr or less) as described above. Cell plates are removed from the incubator and 10 ul of the 20× dilutions are added to the relevant wells. After the addition of inhibitors, cell plates are placed in the tissue culture incubator for 45 minutes. The plates are removed from the incubator and 10 ul of […] TransAct is added to the relevant wells*. Plates are then returned to the incubator and incubated for 24 hours. After 24 hours, plates are spun for 5 minutes at 400×g. * Activation: This assay can be run in two different formats—Activation and Inhibition. The procedure is the same except no TransAct is needed in the peptide wells for Activation. TransAct is only needed in the control wells. The purpose of this procedure is to determine the possible response from peptides alone.
(§8) Cytometric BeadArray (CBA): After the spin, supernatants (~150 ul) are transferred to a new, ultra-low binding U-bottom plate. Supernatants are then frozen at −20° C. until thawed for CBA (BD) to determine levels of human IL-2, TNFa, IL-1b, IP-10, IL-10, and IFNg. […]

Q: Which “release of TNF-alpha from activated PBMCs” value does the source give for “SEQ ID NO: 33885: Target Protein validated as an anti-inflammatory immune modulator (VAEPRRGHLKAALASLGGAAPAAATNGSPPLFK; listed as Homo sapiens)” here?
A: Its value is “significantly blocks”.

Same assay, conditions: CD3/CD28 (TransAct) activated PBMCs; FIG. 2

Q: How did the “release of IL-1b from activated PBMCs” value turn out when “SEQ ID NO: 33885: Target Protein validated as an anti-inflammatory immune modulator (VAEPRRGHLKAALASLGGAAPAAATNGSPPLFK; listed as Homo sapiens)” was run?
A: Its value is “does not block”.

Same assay, conditions: peptide applied with anti-CD3/CD28 T-cell activator; supernatant CBA after 24 hours

Q: Which results are given for “SEQ ID NO: 37043: target protein of the Sequence Listing, applied as peptide to PBMCs (MSEVATLLFSQTALASLESVHPAGHKLWMRNLRQVTSP; listed as Homo sapiens)”?
A: Inhibition by Analyte IL-2: X; Inhibition by Analyte TNF: X

Q: For “SEQ ID NO: 37394: target protein of the Sequence Listing, applied as peptide to PBMCs (MESRTLLLLFSGAVALIQTWADYNYNQGRNDLIFTLQLWKRQ; listed as Homo sapiens)”, which “Inhibition by Analyte IL-1b” value is on record?
A: Its value is “X”.

Q: “SEQ ID NO: 33885: Target Protein validated as an anti-inflammatory immune modulator (VAEPRRGHLKAALASLGGAAPAAATNGSPPLFK; listed as Homo sapiens)” was tested. Which “Inhibition by Analyte IL-1b” value did it give?
A: Its value is “X”.

Q: What about the “Inhibition by Analyte IL-2” value of the same molecule?
A: The value was “X”.

Q: And the “Inhibition by Analyte IP-10” value?
A: Its value is “X”.

Q: What about the “Inhibition by Analyte TNF” value of the same molecule?
A: The value was “X”.

Q: With “SEQ ID NO: 35558: target protein of the Sequence Listing, applied as peptide to PBMCs (MTAFGLGIPTFLVMQPSGSQPRFPALTQNGVALVRTPLTSVYLRVRICRVLGPRSQPS; listed as Homo sapiens)” as the molecule, how does the “Inhibition by Analyte IL-1b” value read?
A: The value was “X”.

Q: And the “Inhibition by Analyte TNF” value?
A: Its value is “X”.

Q: What does the source list for “SEQ ID NO: 35373: target protein of the Sequence Listing, applied as peptide to PBMCs (LDFIRAFLLLLVASVPGKIGSQNLTAQRPPVATSFLQMESSEPTVRK; listed as Homo sapiens)”?
A: Inhibition by Analyte IL-1b: X; Inhibition by Analyte IL-2: X; Inhibition by Analyte IP-10: X; Inhibition by Analyte TNF: X

Q: For “SEQ ID NO: 34837: target protein of the Sequence Listing, applied as peptide to PBMCs (MRSPLSASALLLWSSSVARAFSSPSLLMAVPSPTCSRY; listed as Homo sapiens)”, which “Inhibition by Analyte IL-1b” value is on record?
A: Its value is “X”.

Q: What about the “Inhibition by Analyte IL-10” value of the same molecule?
A: The value was “X”.

Q: And the “Inhibition by Analyte IP-10” value?
A: Its value is “X”.

Q: And the “Inhibition by Analyte TNF” value?
A: Its value is “X”.

Q: With “SEQ ID NO: 37363: target protein of the Sequence Listing, applied as peptide to PBMCs (MGGKSWLFFYSLVFCALLPLPRREDPFKLF; listed as Homo sapiens)” as the molecule, how does the “Inhibition by Analyte IL-1b” value read?
A: Its value is “X”.

Q: Which results are given for “SEQ ID NO: 33934: target protein of the Sequence Listing, applied as peptide to PBMCs (MSFDHPEKNGPWPADPINLPSHG; listed as Homo sapiens)”?
A: Inhibition by Analyte IL-2: X; Inhibition by Analyte TNF: X

Test system: Peripheral Blood Mononuclear Cells
Experiment: PBMC cytokine release by CBA, Activation format (peptide alone)
Type: cell-based, human
Design: key: X = a hit with significant activation or inhibition of relevant cytokine release
Settings: peptide applied to PBMCs alone; supernatant CBA after 24 hours
Procedure: as §1, §2, §3, §4, §5, §6, §7, §8

Q: “SEQ ID NO: 38042: target protein of the Sequence Listing, applied as peptide to PBMCs (MWWKTPCWWTPSTTATSSSAEARSCGRLLKSMAG; listed as Homo sapiens)” was tested. Which “Activation by Analyte IP-10” value did it give?
A: Its value is “X”.

Q: Which results are given for “SEQ ID NO: 35558: target protein of the Sequence Listing, applied as peptide to PBMCs (MTAFGLGIPTFLVMQPSGSQPRFPALTQNGVALVRTPLTSVYLRVRICRVLGPRSQPS; listed as Homo sapiens)”?
A: Activation by Analyte IL-10: X; Activation by Analyte IP-10: X

Q: How did the “Activation by Analyte IP-10” value turn out when “SEQ ID NO: 33678: target protein of the Sequence Listing, applied as peptide to PBMCs (METSCSLWVSSELFCRSVKVFFCLLALHLSALPHSSWTQDKNLGLAGMVELK; listed as Homo sapiens)” was run?
A: The value was “X”.

Q: How did the “Activation by Analyte IP-10” value turn out when “SEQ ID NO: 37192: target protein of the Sequence Listing, applied as peptide to PBMCs (MVSHRKDWRRVNLRFSSCLLLSICLDDKPSADELCFWTDHGRSQLTCPSLGVSQGHARSS; listed as Homo sapiens)” was run?
A: The value was “X”.

Q: “SEQ ID NO: 37375: target protein of the Sequence Listing, applied as peptide to PBMCs (MARPLSLAAAGAPDLLFTALCSLLIEAQPLRPFDLQVLGDPQPRARTP; listed as Homo sapiens)” was tested. Which “Activation by Analyte IL-2” value did it give?
A: The value was “X”.

Q: For B1, which “Activation by Analyte IP-10” value is on record?
A: The value was “X”.

Q: Which “Activation by Analyte IP-10” value does the source give for B2 here?
A: The value was “X”.

Q: B3 was tested. Which “Activation by Analyte IL-1b” value did it give?
A: The value was “X”.

Q: B4 was tested. Which “Activation by Analyte IP-10” value did it give?
A: Its value is “X”.

Q: Which “Activation by Analyte IP-10” value does the source give for B5 here?
A: The value was “X”.

Q: With B6 as the molecule, how does the “Activation by Analyte IP-10” value read?
A: The value was “X”.

Q: How did the “Activation by Analyte IP-10” value turn out when B7 was run?
A: The value was “X”.
